Patent US8921358B2, “Apoptosis signal-regulating kinase 1 inhibitors” (Takeda Pharmaceutical Company Limited, priority 2008, dated 2014)
pIC50: −log10 of the molar value. Structures can show the parent of a compound that is named as a salt.

Biological target: T1, human ASK1 (Homo sapiens, UniProt Q99683)
T1 construct: a 2.2 kb DNA fragment containing an ASK1 gene was recovered from the gel; made in house; host or cells: Sf-21 insect cells, recombinant baculovirus (pFASTBAC1, Bac-to-Bac)
T1 sequence (Q99683 649-1374 limits assumed): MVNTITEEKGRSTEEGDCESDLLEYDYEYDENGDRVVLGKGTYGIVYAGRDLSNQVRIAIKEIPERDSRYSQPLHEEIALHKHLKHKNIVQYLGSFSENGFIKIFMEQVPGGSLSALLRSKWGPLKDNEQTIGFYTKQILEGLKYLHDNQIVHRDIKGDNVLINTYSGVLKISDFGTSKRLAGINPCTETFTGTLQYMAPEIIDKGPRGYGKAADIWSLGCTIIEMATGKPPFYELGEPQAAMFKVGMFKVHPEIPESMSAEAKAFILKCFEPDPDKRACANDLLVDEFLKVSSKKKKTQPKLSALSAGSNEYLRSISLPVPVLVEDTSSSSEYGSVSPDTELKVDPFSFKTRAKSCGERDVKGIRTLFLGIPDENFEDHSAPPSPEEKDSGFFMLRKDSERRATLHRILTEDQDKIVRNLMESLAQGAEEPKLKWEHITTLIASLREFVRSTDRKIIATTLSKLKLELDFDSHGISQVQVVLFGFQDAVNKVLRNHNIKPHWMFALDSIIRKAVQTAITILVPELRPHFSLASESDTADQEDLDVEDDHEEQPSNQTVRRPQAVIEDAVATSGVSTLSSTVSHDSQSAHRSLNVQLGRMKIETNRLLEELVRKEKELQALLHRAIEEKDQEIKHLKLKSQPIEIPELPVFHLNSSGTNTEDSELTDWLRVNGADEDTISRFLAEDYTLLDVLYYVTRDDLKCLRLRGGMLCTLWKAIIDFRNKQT
Assay: Scintillation assay measuring inhibition of ASK1 phosphorylation of myelin basic protein
Format: biochemical
Conditions: active ASK1 protein 30 ng, myelin basic protein 1 μg, [γ-32P]ATP, room temperature 30 min; values given as ranges; read-out: Enzyme Activity IC50
Protocol: Cloning of cDNA encoding human ASK1 was conducted by PCR using primers, 5′-[…] AGAGAAGGGGA-3′ (SEQ ID NO: 1) and 5′-[…]-3′ (SEQ ID NO: 2), from human heart cDNA library (Becton, Dickinson and Company). The PCR product was subjected to agarose gel (1%) electrophoresis, a 2.2 kb DNA fragment containing an ASK1 gene was recovered from the gel, and then digested with restriction enzymes, NotI and SalI, and inserted into a plasmid pFASTBAC1 (Invitrogen) to prepare a plasmid pFB-ASK1. The insert was verified by sequencing. Recombinant baculovirus was prepared according to the procedure of the Bac-to-Bac baculovirus expression system (Invitrogen).
Sf-21 cells were seeded to achieve 1×10^6 cells/mL in 100 mL of Sf-900 II SFM medium (Invitrogen) which contains 10% fetal calf serum and then cultured at 27° C. for 24 hrs. To express ASK1 in cells, 0.15 mL of the recombinant baculovirus virus stock was added to cells, and the then cultured for 60 hrs. The cells were separated from the culture solution by centrifugation at 3000 rpm for 10 min and washed once with PBS. The cells were suspended in 10 mL of lysis buffer (25 mM HEPES (pH 7.5), 1% Triton X, 130 mM NaCl, 1 mM EDTA, 1 mM DTT, 25 mM β-glycerophosphate, Protease inhibitor complete (Roche), 1 mM sodium orthovanadate) and ruptured by four times of treatment with a homogenizer (POLYTRON) at 20000 rpm for 30 seconds. Active ASK1 protein was purified from a supernatant obtained by centrifugal separation at 40000 rpm for 45 min using anti-FLAG M2 Affinity Gel (Sigma).
The test compounds (2.5 μl) dissolved in DMSO were added to wells containing 37.5 μl of the reaction solution (25 mM HEPES (pH 7.5), 10 mM magnesium acetate, 1 mM DTT) including 30 ng of active ASK1 protein and 1 μg of myelin basic protein (Wako), and incubated at room temperature for 5 min. To start the reaction, 10 μL of ATP solution (2.5 μM ATP, 0.1 μCi [γ-^32P]ATP) was added to wells. After incubating at room temperature for 30 min, the reaction was terminated by adding 50 μl of 20% TCA solution. The reaction solution was incubated at 4° C. for 30 min and an acid-insoluble fraction was transferred onto a GF/C filter (Packard) with Cell Harvester (Packard), and washed with 250 mM phosphoric acid. After drying at 45° C. for 60 min., 40 μL of Microscint 0 (Packard) was added and the radioactivity was measured with TopCount (Packard). The concentrations (IC50 value) of the test compounds necessary for 50% inhibition of kinase activity were calculated by PRISM 3.0 (Graphpad Software).
The enzyme activities of selected compounds of the present invention against ASK1 were determined using the assay disclosed in Example A and B. The resulted pIC50 values are reported in Table 1.

| Structure (SMILES) | pIC50 |
| --- | --- |
| CC(C)(O)c1ccc(C(=O)Nc2cc(-c3ccc(C(F)(F)F)cc3)n3nccc3n2)cc1 [Compound 24, 4-(2-hydroxypropan-2-yl)-N-(7-(4-(trifluoromethyl)phenyl)pyrazolo[1,5-a]pyrimidin-5-yl)benzamide] | 6.00 to 7.00 |
| Cc1cc2nc(NC(=O)c3ccc(C(C)(C)CO)cc3)cc(-c3ccccc3)n2n1 [Compound 29, 4-(1-hydroxy-2-methylpropan-2-yl)-N-(2-methyl-7-phenylpyrazolo[1,5-a]pyrimidin-5-yl)benzamide] | > 7.00 |
| CC(C)(C)c1ccc(C(=O)Nc2cc(-c3cccc(CC#N)c3)n3nccc3n2)cc1 [Compound 34, 4-tert-butyl-N-{7-[3-(cyanomethyl)phenyl]pyrazolo[1,5-a]pyrimidin-5-yl}benzamide] | > 7.00 |
| CC(C)(C)c1ccc(C(=O)Nc2cc(-c3ccc(C(N)=O)cc3)n3nccc3n2)cc1 [Compound 42, 4-tert-butyl-N-(7-(4-carbamoylphenyl)pyrazolo[1,5-a]pyrimidin-5-yl)benzamide] | > 7.00 |
| CC(C)(O)c1ccc(C(=O)Nc2cc(N3CCc4ccccc4C3)n3nccc3n2)cc1 [Compound 64, N-(7-(3,4-dihydroisoquinolin-2(1H)-yl)pyrazolo[1,5-a]pyrimidin-5-yl)-4-(2-hydroxypropan-2-yl)benzamide] | > 7.00 |
| CC(C)(C)c1ccc(C(=O)Nc2cc(N3CCOCC3)n3nccc3n2)cc1 [Compound 65, 4-tert-butyl-N-(7-morpholinopyrazolo[1,5-a]pyrimidin-5-yl)benzamide, trifluoroacetate salt] | > 7.00 |
| CC(C)(C)c1ccc(C(=O)Nc2cc(N3CCc4ccccc4C3)n3nccc3n2)cc1 [Compound 66, 4-tert-butyl-N-(7-(3,4-dihydroisoquinolin-2(1H)-yl)pyrazolo[1,5-a]pyrimidin-5-yl)benzamide] | > 7.00 |
| CC(C)(O)c1ccc(C(=O)Nc2cc(N3CCC[C@H]3CO)n3nccc3n2)cc1 [Compound 67, (S)—N-(7-(2-(hydroxymethyl)pyrrolidin-1-yl)pyrazolo[1,5-a]pyrimidin-5-yl)-4-(2-hydroxypropan-2-yl)benzamide] | 6.00 to 7.00 |
| CC(C)(O)c1ccc(C(=O)Nc2cc(N3CCC[C@@H]3CO)n3nccc3n2)cc1 [Compound 68, (R)—N-(7-(2-(hydroxymethyl)pyrrolidin-1-yl)pyrazolo[1,5-a]pyrimidin-5-yl)-4-(2-hydroxypropan-2-yl)benzamide] | 6.00 to 7.00 |
| CC(C)(O)c1ccc(C(=O)Nc2cc(N3CC[C@@H](O)C3)n3nccc3n2)cc1 [Compound 69, (R)-4-(2-hydroxypropan-2-yl)-N-(7-(3-hydroxypyrrolidin-1-yl)pyrazolo[1,5-a]pyrimidin-5-yl)benzamide] | 6.00 to 7.00 |
| CC(C)(O)c1ccc(C(=O)Nc2cc(N3CC[C@H](O)C3)n3nccc3n2)cc1 [Compound 70, (S)-4-(2-hydroxypropan-2-yl)-N-(7-(3-hydroxypyrrolidin-1-yl)pyrazolo[1,5-a]pyrimidin-5-yl)benzamide] | 6.00 to 7.00 |
| CC(C)(O)c1ccc(C(=O)Nc2cc(N3CCC(CCO)CC3)n3nccc3n2)cc1 [Compound 71, N-(7-(4-(2-hydroxyethyl)piperidin-1-yl)pyrazolo[1,5-a]pyrimidin-5-yl)-4-(2-hydroxypropan-2-yl)benzamide] | > 7.00 |
| CC(C)(O)c1ccc(C(=O)Nc2cc(N3CCOCC3)n3nccc3n2)cc1 [Compound 72, 4-(2-hydroxypropan-2-yl)-N-(7-morpholinopyrazolo[1,5-a]pyrimidin-5-yl)benzamide] | > 7.00 |
| CC(C)(O)c1ccc(C(=O)Nc2cc(N3CCC(O)CC3)n3nccc3n2)cc1 [Compound 73, N-(7-(4-hydroxypiperidin-1-yl)pyrazolo[1,5-a]pyrimidin-5-yl)-4-(2-hydroxypropan-2-yl)benzamide] | 6.00 to 7.00 |
| CC(C)(O)c1ccc(C(=O)Nc2cc(N3CCCCC3CCO)n3nccc3n2)cc1 (stereo not shown) [Compound 74, N-(7-(2-(2-hydroxyethyl)piperidin-1-yl)pyrazolo[1,5-a]pyrimidin-5-yl)-4-(2-hydroxypropan-2-yl)benzamide] | 6.00 to 7.00 |
| CC(C)(C)c1ccc(C(=O)Nc2cc(N3CCC[C@H](O)C3)n3nccc3n2)cc1 [Compound 75, (S)-4-tert-butyl-N-(7-(3-hydroxypiperidin-1-yl)pyrazolo[1,5-a]pyrimidin-5-yl)benzamide] | 6.00 to 7.00 |
| CC(C)(O)c1ccc(C(=O)Nc2cc(N3CCC[C@@H](O)C3)n3nccc3n2)cc1 [Compound 76, (R)—N-(7-(3-hydroxypiperidin-1-yl)pyrazolo[1,5-a]pyrimidin-5-yl)-4-(2-hydroxypropan-2-yl)benzamide] | 6.00 to 7.00 |
| CC(C)(C)c1ccc(C(=O)Nc2cc(N3CCC[C@@H](O)C3)n3nccc3n2)cc1 [Compound 77, (R)-4-tert-butyl-N-(7-(3-hydroxypiperidin-1-yl)pyrazolo[1,5-a]pyrimidin-5-yl)benzamide] | > 7.00 |
| CC(C)(O)c1ccc(C(=O)Nc2cc(N3CCC[C@H](O)C3)n3nccc3n2)cc1 [Compound 78, (S)—N-(7-(3-hydroxypiperidin-1-yl)pyrazolo[1,5-a]pyrimidin-5-yl)-4-(2-hydroxypropan-2-yl)benzamide] | 6.00 to 7.00 |
| CC(C)(O)c1ccc(C(=O)Nc2cc(N3CCc4[nH]ncc4C3)n3nccc3n2)cc1 [Compound 79, N-(7-(6,7-dihydro-1H-pyrazolo[4,3-c]pyridin-5(4H)-yl)pyrazolo[1,5-a]pyrimidin-5-yl)-4-(2-hydroxypropan-2-yl)benzamide] | 6.00 to 7.00 |
| CC(C)(O)c1ccc(C(=O)Nc2cc(N3CCC[C@@H](C(N)=O)C3)n3nccc3n2)cc1 [Compound 83, (R)-1-(5-(4-(2-hydroxypropan-2-yl)benzamido)pyrazolo[1,5-a]pyrimidin-7-yl)piperidine-3-carboxamide] | > 7.00 |
| CC(C)(O)c1ccc(C(=O)Nc2cc(N3CCC[C@@H](C(=O)O)C3)n3nccc3n2)cc1 [Compound 84, (R)-1-(5-(4-(2-hydroxypropan-2-yl)benzamido)pyrazolo[1,5-a]pyrimidin-7-yl)piperidine-3-carboxylic acid] | 6.00 to 7.00 |
| CC(C)(O)c1ccc(C(=O)Nc2cc(N3CCC[C@H](C(N)=O)C3)n3nccc3n2)cc1 [Compound 85, (S)-1-(5-(4-(2-hydroxypropan-2-yl)benzamido)pyrazolo[1,5-a]pyrimidin-7-yl)piperidine-3-carboxamide] | 6.00 to 7.00 |
| CC(C)(O)c1ccc(C(=O)Nc2cc(N3CCC[C@H](C(=O)O)C3)n3nccc3n2)cc1 [Compound 86, (S)-1-(5-(4-(2-hydroxypropan-2-yl)benzamido)pyrazolo[1,5-a]pyrimidin-7-yl)piperidine-3-carboxylic acid] | < 6.00 |
| CC(C)(O)c1ccc(C(=O)Nc2cc(N3CCCC3)n3nccc3n2)cc1 [Compound 87, 4-(2-hydroxypropan-2-yl)-N-(7-(pyrrolidin-1-yl)pyrazolo[1,5-a]pyrimidin-5-yl)benzamide] | > 7.00 |
